What was measured:
sGC = assay: cGMP neuronal cell-based assay (rat primary neurons); details: rat primary hippocampal neurons, DETA-NO 10 μM or 30 μM, cGMP by LC-MS/MS; read-out: sGC Neuron EC50
Description: Rat primary neurons were isolated from fetuses of 18-day pregnant Sprague-Dawley females. The fetuses were collected in Hanks' balanced salt solution (HBSS) and brains were rapidly removed. The cerebral hippocampi were isolated and mechanically fragmented. Further tissue digestion was performed with 0.25% (wt/vol) trypsin solution in HBSS without Ca2+ and Mg2+ for 15 min at 37° C. After trypsination, cells were washed and resuspended in neurobasal medium supplemented with 0.5 mM L-glutamine, 12.5 uM glutamic acid, 2% B-27 and 100 U/mL penicillin, and 100 μg/mL streptomycin. Cells were plated at a density of 26×10^3 or 3×10^4 or 4×10^4 cells/well in a poly-D-lysine coated 384-well flat clear-bottom plate (Corning Cat No 354662). Cells were incubated 6-7 days at 37° C. in a humidified chamber with 5% CO2. Media was removed and cells were washed 1× with HBSS containing Ca2+ and Mg2+, and replaced with 40 uL HBSS containing 0.5 mM IBMX, and incubated for 15 minutes at 37° C. 10 uL of a 5× stock of test compounds with diethylenetriamine NONOate (DETA-NO) was added. Final concentration of DETA-NO was either 10 μM or 30 μM. Cells were incubated for 20 min at 37° C. Medium was removed, 50 uL of ice-cold 10% acetic acid was added, and incubated for 60 minutes at 4° C. Following centrifugation at 4° C. for 5 minutes at 1000×g to pellet cell debris, the supernatant was aspirated to a clean plate and the samples were analyzed for cGMP content. cGMP concentrations were determined from each sample using LC-MS/MS.
Concentration response data were analyzed using a 4-parameter fit (log (agonist) vs. response-variable slope). The EC50 was interpolated from the curve fit and is defined as the concentration at which the compound elicits 50% of its maximal response. When the experiment was carried out multiple times for a given compound, the geometrical mean of all experiments is reported.

[1] = Rat cerebrospinal fluid (CSF) pharmacokinetics; format: in vivo; details: male, Sprague-Dawley, rat CSF/unbound plasma
Description: PK in rats was determined following oral dosing. For the oral (PO) experiments, a group of 6 male Sprague-Dawley rats with an indwelling catheter placed in the cisterna magna were used. The PO group was dosed with 3.0, or 10 mg/kg of a compound formulated as a solution in PEG400 or suspension in 0.5% Tween 80 and 0.5% Methylcellulose in water. PO doses were administered by oral gavage and delivered to the stomach using a syringe and gavage tube. Following oral dosage administration, the gavage tube was flushed with approximately 0.5 mL of water to ensure complete delivery of the full dose.
Plasma samples were collected as follows: samples of CSF and blood were collected at 1 hour, 2, and optionally at 4 hours post-dosing. CSF samples (0.05 mL) were collected through the intracisternal catheter. Blood samples (0.25 mL) were collected through tail nick sampling. These samples were kept on ice until processed for plasma. Blood samples were centrifuged at 3200 rpm for 5 minutes at approximately 5° C. within 1 hour of collection. Plasma was directly transferred to individual Eppendorf tubes (0.125 mL). Plug caps were placed on the tubes and the tubes frozen at approximately −70° C. and stored until analysis. Plasma and CSF was collected and analyzed for the presence of a compound.
The compound in question and the internal standard were extracted from plasma by precipitation and from CSF by either precipitation or dilution. Samples were analyzed using liquid chromatography (LC) with tandem mass spectrometric detection (MS/MS) using electrospray ionization. The standard curve ranged from 0.1 to 1000 ng/mL. Results of the compounds described herein in this assay are illustrated in Table G below (for a 10 mg/kg dose and/or 3 mg/kg of the compound). Compound concentrations from several animals were combined to give the geometrical mean at each specific dosage and timepoint.
Kp,uu is defined as the concentration ratio of unbound drug in CSF to unbound drug in plasma. Unbound drug in plasma (or free plasma concentration) is calculated by multiplying the total plasma concentration by the unbound fraction as determined by plasma protein binding. The CSF concentration is then divided by the free plasma concentration to determine the Kp,uu. (See e.g., Di et al., J. Med. Chem., 56, 2-12 (2013))

| EC50 (sGC) | Kp uu at 1 h ([1]; PO 3 mg/kg) | Kp uu at 2 h ([1]; PO 3 mg/kg) | Kp uu at 4 h ([1]; PO 3 mg/kg) | Kp uu at 1 h ([1]; PO 10 mg/kg) | Kp uu at 2 h ([1]; PO 10 mg/kg) | Kp uu at 4 h ([1]; PO 10 mg/kg) | Compound |
| --- | --- | --- | --- | --- | --- | --- | --- |
| 100 to 1000 nM | – | – | – | – | – | – | Oc1nc(-c2cn3ccnc3c(Cc3ccccc3)n2)ncc1F [Compound I-2, 2-(8-Benzylimidazo[1,2-a]pyrazin-6-yl)-5-fluoropyrimidin-4-ol] |
| ≤ 100 nM | ≤ 1 | 1 to 2 | 1 to 2 | – | – | – | Oc1nc(-c2cn3ccnc3c(Cc3cccc(F)c3F)n2)ncc1F [Compound I-4, 2-(8-(2,3-Difluorobenzyl)imidazo[1,2-a]pyrazin-6-yl)-5-fluoropyrimidin-4-ol] |
| ≤ 100 nM | 2 to 3 | 2 to 3 | 2 to 3 | – | – | – | Oc1nc(-c2cn3c(F)cnc3c(Cc3cc(F)ccc3F)n2)ncc1F [Compound I-5] |
| ≤ 100 nM | > 3 | > 3 | > 3 | > 3 | > 3 | 2 to 3 | Cc1cc(F)c(Cc2nc(-c3ncc(F)c(O)n3)cn3ccnc23)cc1F [Compound I-14, 5-fluoro-2-(8-(2,5-difluoro-4-methylbenzyl)imidazo[1,2-a]pyrazin-6-yl)pyrimidin-4-ol] |
| 100 to 1000 nM | – | – | – | – | – | – | Cc1cc(F)c(Cc2nc(-c3nccc(O)n3)cn3ccnc23)cc1F [Compound I-15, 2-(8-(2,5-difluoro-4-methylbenzyl)imidazo[1,2-a]pyrazin-6-yl)pyrimidin-4-ol] |
| ≤ 100 nM | > 3 | > 3 | > 3 | – | – | – | Oc1nc(-c2cn3ccnc3c(Cc3cc(F)ccc3F)n2)ncc1Cl [Compound I-16, 5-chloro-2-(8-(2,5-difluorobenzyl)imidazo[1,2-a]pyrazin-6-yl)pyrimidin-4-ol] |
| – | 1 to 2 | 1 to 2 | 1 to 2 | – | – | – | Cc1cc(F)c(Cc2nc(-c3ncc(F)c(O)n3)cn3c(F)cnc23)cc1F [Compound I-18] |
| ≤ 100 nM | – | – | – | – | – | – | Cc1cc(F)c(Cc2nc(-c3ncc(F)c(O)n3)cn3ncnc23)cc1F [Compound I-19, 5-Fluoro-2-(8-(2,5-difluoro-4-methylbenzyl)-[1,2,4]triazolo[1,5-a]pyrazin-6-yl)pyrimidin-4-ol] |
| ≤ 100 nM | 2 to 3 | 2 to 3 | 2 to 3 | 1 to 2 | 2 to 3 | 2 to 3 | Oc1nc(-c2cn3ccnc3c(Cc3cc(F)ccc3F)n2)ncc1F [Compound I-20, 5-fluoro-2-(8-(2,5-difluorobenzyl)imidazo[1,2-a]pyrazin-6-yl)pyrimidin-4-ol] |
| ≤ 100 nM | – | – | – | – | – | – | Oc1nc(-c2cn3ccnc3c(Cc3ccccc3F)n2)ncc1F [Compound I-21] |
| ≤ 100 nM | – | – | – | – | – | – | Oc1nc(-c2cn3ncnc3c(Cc3ccccc3F)n2)ncc1F [Compound I-23] |

— patent publication US20240207265A1, “TREATMENT OF CNS DISEASES WITH sGC STIMULATORS” (Tisento Therapeutics Inc., priority 2021, published 2024)
